From publication PMC7252514 (Science (New York, N.Y.), 2019)
Each block holds one compound with its values, some of them ahead of it.

Key:
PSAM^4-5HT3 [1] = target: T1, PSAM^4-5HT3 (Homo sapiens, UniProt P36544, L131G/Q139L/Y217F, form not given, species not given); assay: Membrane potential; type: cell-based; details: endogenous ligands
PgP = details: cited from earlier work
[2] = target: α7^L131G,Q139L,Y217F-GlyR (PSAM^4-GlyR) (Homo sapiens, UniProt P36544, L131G/Q139L/Y217F); assay: Membrane potential; type: cell-based
[3] = target: α7^L131G,Q139L,Y217F-GlyR (Homo sapiens, UniProt P23415+P36544, L131G/Q139L/Y217F); assay: Electrophysiological recordings from HEK-293 cells expressing PSAM4-GlyR; type: cell-based
α7 nAChR = α7 nAChR (Homo sapiens, UniProt P36544); assay: Agonist activity at α7 nAChR; type: cell-based
α7^L131G-GlyR = assay: Membrane potential; type: cell-based; details: α7L131G-GlyR versus parent channel
Food intake = type: in vivo, mice; details: elevated doses
[4] = test system: cultured hippocampal neurons expressing PSAM^4-GlyR; assay: Continuous silencing of cultured hippocampal neurons expressing PSAM4-GlyR; type: cell-based; details: varenicline 15 nM for 3 – 18 days
[5] = test system: PSAM^4-5HT3 HC-expressing layer 2/3 cortical neurons; assay: Depolarization of layer 2/3 cortical neurons expressing PSAM4-5HT3 HC; details: varenicline 15 nM
[6] = cited from earlier work
PSAM^4-5HT3 [7] = target: T1, PSAM^4-5HT3; assay: Electrophysiology of PSAM4-5HT3 currents; type: cell-based; details: off-rate
[8] = test system: PSAM^4-GlyR in GPi neurons; assay: In vivo electrophysiology of GPi neurons transduced with PSAM4-GlyR; design: species or system rhesus monkey; details: subcutaneous 0.1 mg/kg, versus varenicline prior to AAV transduction
[9] = test system: PSAM^4-GlyR-expressing layer 2/3 cortical neurons; type: cell-based, mice; details: varenicline 10 – 16 nM
[10] = test system: cultured hippocampal neuron expressing PSAM^4-5HT3; assay: Sustained depolarization of cultured hippocampal neurons by PSAM4-5HT3; details: continuous varenicline 15 nM exposure
[11] = test system: PSAM^4-GlyR in SNr GABAergic neurons; assay: Unilateral SNr silencing rotation assay in PSAM4-GlyR mice; type: in vivo

T1 sequence (P23979 242-489, form open): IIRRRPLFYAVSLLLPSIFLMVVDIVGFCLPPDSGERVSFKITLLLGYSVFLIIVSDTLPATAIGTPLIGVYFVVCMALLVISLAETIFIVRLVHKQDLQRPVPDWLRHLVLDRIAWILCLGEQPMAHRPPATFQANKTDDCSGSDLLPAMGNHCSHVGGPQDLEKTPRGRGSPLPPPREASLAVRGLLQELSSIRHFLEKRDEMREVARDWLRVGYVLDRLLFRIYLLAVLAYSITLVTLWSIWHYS
T1 sequence (P36544 23-224 L131G/Q139L/Y217F, form open): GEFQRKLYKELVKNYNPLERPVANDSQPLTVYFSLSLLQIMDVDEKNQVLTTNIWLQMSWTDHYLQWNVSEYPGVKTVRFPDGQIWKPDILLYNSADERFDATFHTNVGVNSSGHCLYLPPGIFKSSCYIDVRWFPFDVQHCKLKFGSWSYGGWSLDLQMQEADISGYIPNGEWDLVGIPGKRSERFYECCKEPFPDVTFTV
Sequence of α7^L131G,Q139L,Y217F-GlyR (PSAM^4-GlyR) (P36544 23-229 L131G/Q139L/Y217F): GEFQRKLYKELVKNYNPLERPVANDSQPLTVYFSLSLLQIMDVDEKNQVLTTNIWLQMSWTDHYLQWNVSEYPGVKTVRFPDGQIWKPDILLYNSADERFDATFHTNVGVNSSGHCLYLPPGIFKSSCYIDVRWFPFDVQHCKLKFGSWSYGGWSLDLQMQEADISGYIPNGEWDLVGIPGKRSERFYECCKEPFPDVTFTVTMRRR
Sequence of α7^L131G,Q139L,Y217F-GlyR (PSAM^4-GlyR) (P23415 248-457 partner): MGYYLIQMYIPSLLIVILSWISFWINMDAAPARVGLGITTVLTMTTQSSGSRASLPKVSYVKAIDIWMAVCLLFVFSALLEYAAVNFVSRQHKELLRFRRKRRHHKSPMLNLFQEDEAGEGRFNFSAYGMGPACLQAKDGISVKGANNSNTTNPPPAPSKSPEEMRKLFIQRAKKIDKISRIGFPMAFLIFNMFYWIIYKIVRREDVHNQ
Sequence of α7 nAChR (P36544 23-502): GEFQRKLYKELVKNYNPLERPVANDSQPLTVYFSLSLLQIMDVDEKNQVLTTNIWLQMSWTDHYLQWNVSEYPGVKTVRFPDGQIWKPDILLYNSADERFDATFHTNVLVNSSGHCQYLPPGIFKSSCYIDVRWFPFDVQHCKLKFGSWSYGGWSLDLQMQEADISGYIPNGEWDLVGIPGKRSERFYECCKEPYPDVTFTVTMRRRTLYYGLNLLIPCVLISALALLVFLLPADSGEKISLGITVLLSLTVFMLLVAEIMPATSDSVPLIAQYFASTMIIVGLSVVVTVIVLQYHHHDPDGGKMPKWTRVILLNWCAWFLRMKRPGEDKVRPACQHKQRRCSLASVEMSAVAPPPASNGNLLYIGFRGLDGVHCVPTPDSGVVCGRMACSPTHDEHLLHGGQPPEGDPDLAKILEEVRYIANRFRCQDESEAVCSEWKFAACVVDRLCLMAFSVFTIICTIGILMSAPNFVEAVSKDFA

Compound: CC(=O)OCC[N+](C)(C)C [ACh, acetylcholine]
potency at PSAM4-5HT3 (PSAM^4-5HT3 [1]): low potencies

Compound: C[N+]1([O-])CCN(C2=Nc3cc(Cl)ccc3Nc3ccccc32)CC1 [CNO, clozapine-N-oxide]
PgP substrate (PgP): substrate for the P-glycoprotein efflux pump

Compound: C[N+](C)(C)CCO [choline]
potency at PSAM4-5HT3 (PSAM^4-5HT3 [1]): low potencies | EC50 [2]: 128 ± 32 µM

Compound: NCC(=O)O [glycine]
response to glycine [3]: did not respond

agonist activity at α7 nAChR (α7 nAChR): no agonist activity
Compound: CN1C2CCCC1CC(NC(=O)c1nn(C)c3ccccc13)C2 (centres unmarked) [granisetron]

Compound: CN1[C@@H]2CC[C@H]1C[C@@H](OC(=O)c1c[nH]c3ccccc13)C2 [tropisetron]
potency enhancement (α7^L131G-GlyR): 3 fold

Compound: c1cnc2cc3c(cc2n1)[C@@H]1CNC[C@H]3C1 [varenicline]
food intake (Food intake): reduced | potency enhancement (α7^L131G-GlyR): 17 fold | rheobase under constant exposure [4]: maintained elevated rheobase | depolarization [5]: +17.2 ± 2.4 mV | brain penetrance [6]: excellent brain penetrance | t-off1/2 (PSAM^4-5HT3 [7]): 3.2 ± 1.3 min | GPi neuron firing rate and burst firing rate [8]: significantly inhibited | increase of current amplitude required to fire an action potential (rheobase) [9]: 6 fold | suppression of firing [9]: strongly suppressed firing | reduction of input resistance ([9]; on average): 3 fold | PgP substrate (PgP): not a PgP substrate | duration of sustained depolarization [10]: 14 to 22 days | time for rotation activity to return nearly to baseline ([11]; intraperitoneal): ~4 h | time to evident behavioral effects of silencing ([11]; intraperitoneal): ≤ 20 min | lowest effective dose (LED) ([11]; intraperitoneal, onset of rotation, with amphetamine 3 mg/kg): 0.1 mg/kg | circling after oral delivery ([11]; oral delivery 5 μg/mL): elicited circling
